Results published in patent US12692232B2, “Indole carboxamide compound, preparation therefor and use thereof” (NANJING RUISHUNING MEDICAL TECHNOLOGY CO., LTD., priority 2021, dated 2026).

What was measured:
[1] = test system: lipopolysaccharide (LPS)-induced mouse model of sepsis; assay: LPS-induced mouse model of sepsis, survival analysis; format: in vivo; conditions: for average survival time: LPS 40 mg/kg i.p., LPS group 15.4±2.9; for time after which the mice began to die: LPS 40 mg/kg i.p. 30 minutes later, LPS group about 12 hours
Procedure: A lipopolysaccharide (LPS)-induced mouse model of sepsis was used to determine the preventive and therapeutic effect of the compounds of the present invention (as exemplified by compounds 1-1 and 2-1 obtained in Examples 1 and 3) against sepsis. The method was as follows:
Experimental animals: 60 male C57BL/6J mice aged 6-8 weeks. The experimental animals were housed in an environment with room temperature of 25±2° C., 12 hours dark/12 hours light, and fed with conventional feed.
Survival analysis experiment: the mice were randomly divided into 6 groups of 10 mice each, namely, i) a solvent control group: each animal was administered 0.9% saline; ii) a sepsis model group (LPS group): each animal was injected intraperitoneally with LPS at a dose of 40 mg/kg; iii) a treatment group of medium-dose compound 1-1 (LPS+25 mg/kg of compound 1-1 obtained in Example 1): each animal was administered compound 1-1 by gavage at a dose of 25 mg/kg, followed by intraperitoneal injection of LPS at a dose of 40 mg/kg 30 minutes later; iv) a treatment group of high-dose compound 1-1 (LPS+50 mg/kg of compound 1-1 obtained in Example 1): each animal was administered compound 1-1 by gavage at a dose of 50 mg/kg, followed by intraperitoneal injection of LPS at a dose of 40 mg/kg 30 minutes later; v) a treatment group of high-dose compound 2-1 (LPS+50 mg/kg compound 2-1 obtained in Example 2): each animal was administered compound 2-1 by gavage at a dose of 50 mg/kg, followed by intraperitoneal injection of LPS at a dose of 40 mg/kg 30 minutes later; vi) a treatment group of medium-dose indole analogue 3-[(1-methyl-1H-indole-2-carbonyl)amino]propionic acid disclosed in CN2019107285315 (LPS+25 mg/kg of indole analogue 3-[(1-methyl-1H-indole-2-carbonyl)amino]propionic acid disclosed in CN2019107285315). The survival of the mice in each group was monitored, the time of death of the mice was recorded, and the average survival time of the animals in each group was calculated.

[2] = biological target: TRPC1 protein (Homo sapiens, UniProt P48995); assay: MST binding to TRPC1 protein; conditions: for Kd: MST; for affinity strength to TRPC6 protein higher than to TRPC1 protein: MST Kd ratio
Procedure: Preparation and labelling of protein solution: TRPC6 protein dry powder (Alomone Labs, Israel) was prepared into a protein mother solution at a concentration of 10 μM using PBS-Buffer, and 35 μL of the protein stock solution was taken to the Buffer exchange A column, and centrifuged to obtain the Tris-removed protein. 34 μL Labelling Buffer was added to the Tris-removed protein according to the instructions of the Protein Fluorescent Labelling Kit (model L001). After mixing well, 3 μL of NT-647-NHS fluorescent dye was added and thus obtained mixture was incubated for 20 minutes. The protein-dye mixture was transferred to the purification B column, 300 μL of PBS-Buffer was added, and the target protein, i.e. fluorescent labelled protein TRPC6, was collected by centrifugation (with a final concentration of about 2 μM). 180 μL of target protein was mixed with 1620 μL of PBS-Buffer, and then 9 μl of Tween-20 were added thereto. Thus the resulting mixture was mixed and then centrifuged to obtain the target protein solution.
Preparation of compound solutions: the compounds were prepared separately with DMSO to storage solutions with a concentration of […]. 10 μL of each storage solution was placed in a […] EP tube, 90 μL of PBS was added thereto and the resulting mixture was thoroughly mixed to prepare 100 μL of working solution at a concentration of 1 μM for later use. Ligand gradient dilutions were made for a total of 16 concentrations, and 10 μL of 10% DMSO-Buffer was added to each of the 15 gradients except gradient 1, followed by the addition of 10 μL of ligand working solution to gradients 1 and 2, respectively. The liquid in tube 2 was mixed and then 10 μL therein was taken into tube 3, and dilution was carried out in this manner until tube 16. Tube 16 was mixed and 10 μL therein was taken and discarded, and the remainder was kept for later use.
Detection and analysis: 10 μL of protein solution was added to the 16 compound gradient dilutions respectively and mixed, and the resultant mixtures were transferred to capillary tubes sequentially to start detection on machine. After loading the data, the MST analysis model and Kd Model were selected to obtain the fitting curve and dissociation constant (Kd).
The binding ability of the compounds of the present invention (as exemplified by the compounds 1-1 and 2-1 obtained in Examples 1 and 3) for other TRPC proteins (e.g., TRPC1, TRPC3, TRPC4, TRPC5, and TRPC7) was determined using the microscale thermophoresis (MST) method. The method was as follows:
The affinity of the compounds of the present invention with TRPC1, TRPC3, TRPC4, TRPC5 and TRPC7 proteins, respectively, was determined by the same method as in Example 5.

[3] = Stability at high temperature and high humidity (residual content); format: physicochemical
Procedure: The stability of compounds 1-1, 2-1 and the indole analogue 3-[(1-methyl-1H-indole-2-carbonyl) amino]propionic acid disclosed in CN2019107285315 was tested by experiments at high temperature and high humidity. The compounds were placed in 24-well plates, spread as a thin layer with a thickness of no more than 5 mm and placed in an oven at 60° C. for 10 days. Observation of appearance, TLC identification and determination of absorbance were carried out on the 5th day and the 10th day, respectively, in order to compare with the samples on the 0th day. An amount of compounds were taken into tightly closed brown colored penicillin bottles (the compounds were spread as a thin layer with a thickness of no more than 5 mm) and then placed into a tightly closed container with saturated NaCl solution and left at room temperature away from light for 10 days. Observation of appearance, TLC identification and determination of absorbance were carried out on the 5th day and the 10th day, respectively, in order to compare with the samples on the 0th day.

[4] = high humidity environment (saturated NaCl, room temperature, away from light), after 5 days
[5] = high humidity environment (saturated NaCl, room temperature, away from light), after 10 days
[6] = high temperature environment (oven at 60° C.), after 5 days
[7] = high temperature environment (oven at 60° C.), after 10 days

TRPC1 protein, sequence (P48995 whole entry, species assumed): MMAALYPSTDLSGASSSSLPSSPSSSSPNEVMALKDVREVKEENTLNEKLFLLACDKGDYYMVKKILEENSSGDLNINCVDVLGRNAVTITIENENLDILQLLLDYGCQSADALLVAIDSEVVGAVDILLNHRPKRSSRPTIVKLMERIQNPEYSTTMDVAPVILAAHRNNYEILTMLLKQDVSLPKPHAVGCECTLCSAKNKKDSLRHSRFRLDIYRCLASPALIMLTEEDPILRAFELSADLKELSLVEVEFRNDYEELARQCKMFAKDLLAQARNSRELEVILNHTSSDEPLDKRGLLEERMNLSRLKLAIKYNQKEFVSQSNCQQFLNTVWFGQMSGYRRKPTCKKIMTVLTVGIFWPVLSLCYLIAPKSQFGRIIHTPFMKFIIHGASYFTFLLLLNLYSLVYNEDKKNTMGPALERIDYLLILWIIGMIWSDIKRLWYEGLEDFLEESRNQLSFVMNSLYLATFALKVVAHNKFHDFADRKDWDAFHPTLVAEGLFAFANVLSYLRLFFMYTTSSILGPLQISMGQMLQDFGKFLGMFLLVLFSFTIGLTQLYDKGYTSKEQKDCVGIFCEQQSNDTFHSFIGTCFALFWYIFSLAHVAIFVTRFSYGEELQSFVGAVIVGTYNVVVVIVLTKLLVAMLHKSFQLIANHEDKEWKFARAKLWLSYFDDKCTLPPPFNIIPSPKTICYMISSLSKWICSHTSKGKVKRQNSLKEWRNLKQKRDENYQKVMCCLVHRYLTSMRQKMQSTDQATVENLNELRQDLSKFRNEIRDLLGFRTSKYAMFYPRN

SMILES | average survival time ([1]; 25 mg/kg) [h] | Kd [2] [nM] | affinity strength to TRPC6 protein higher than to TRPC1 protein [2] [fold] | residual content [3, 4] [%] | residual content [3, 5] [%] | residual content [3, 6] [%] | residual content [3, 7] [%] | time after which the mice began to die ([1]; 25 mg/kg) [h] | time after which the mice began to die ([1]; 50 mg/kg) [h] | average survival time ([1]; 50 mg/kg) [h]
Cn1c(C(=O)NCCC(=O)O)cc2ccccc21 [3-[(1-methyl-1H-indole-2-carbonyl)amino]propionic acid, reference compound] | 19.8 ± 3.1 | 1940 | 65 | 29.5±0.1 | 8.8±0.1 | 23.1±0.1 | 4.2±0.1 | – | – | –
CC(=O)OCCCNC(=O)c1c(C=O)c2ccccc2n1C [compound 1-1, propyl 3-[(3-formyl-1-methyl-1H-indole-2-carbonyl)amino]acetate] | 24.8 ± 3.9 | 2940 | 245 | 93.5±0.4 | 90.7±0.3 | 95.4±08 | 94.2±0.6 | 20 | 28 | 26.4 ± 4.3
Cn1c(C(=O)NCCCOC(=O)c2ccccc2)c(C=O)c2ccccc21 [compound 2-1] | – | 2400 | 155 | 94.2±0.3 | 90.1±0.8 | 93.6±0.6 | 91.7±0.5 | – | 22 | 24.2 ± 4.9
